From US6992079B2, “Substituted 11-phenyl-dibenzazepine compounds useful for the treatment or prevention of diseases characterized by abnormal cell proliferation” (President Fellows of Harvard College, priority 1997, dated 2006)
Read-outs that look alike come from different tables or passages of the source.

How the values were obtained:
Format in all cases: cell-based
[1] = In-Vitro Testing SRB panel: Renal Cancer
[2] = test system: BT-549; experiment: In-Vitro Testing SRB panel: Breast Cancer; conditions: BT-549
[3] = test system: RL-60 (TS); experiment: In-Vitro Testing SRB panel: Leukemia
[4] = test system: CARI-1; experiment: In-Vitro Testing SRB panel: Renal Cancer
[5] = test system: ROP-62
[6] = test system: panel of human cancer cells; experiment: In vitro screening, SRB, panel of 60 human cancer cell lines
[7] = test system: NIH 3T3 mouse fibroblast cells; experiment: Mitogenic assay (mitogen-induced cell proliferation); conditions: Mus musculus, NIH3T3, 10 μM compound
[8] = test system: A549/ATCC
[9] = test system: SR; experiment: In-Vitro Testing SRB panel: Leukemia
[10] = test system: MDA-MB-231/ATCC; experiment: In-Vitro Testing SRB panel: Breast Cancer; conditions: MDA-MB-231/ATCC
[11] = Homo sapiens, read-out: LC50 (the source's name)

## COc1cccc2c1C(c1ccccc1Cl)c1cc(Cl)ccc1N(C(=O)c1ccc([N+](=O)[O-])cc1)C2 (centres unmarked) [Compound 31]
[1]; DO-31, log10 conc -6 Molar
  Percent Growth: 61%
[1]; DO-31, log10 conc -7 Molar
  Percent Growth: 104%
[1]; DO-31, log10 conc -8 Molar
  Percent Growth: 94%
[1]; Homo sapiens
  GI50: 1.82 µM
[1]; Homo sapiens, DO-31, read-out: LC50 (the source's name)
  CC50: > 100 µM
[2]
  TGI: >1.00E−04 Molar
[2]; log10 conc -4 Molar
  Percent Growth: 11%
[2]; log10 conc -5 Molar
  Percent Growth: 43%
[2]; log10 conc -6 Molar
  Percent Growth: 59%
[2]; log10 conc -7 Molar
  Percent Growth: 94%
[2]; log10 conc -8 Molar
  Percent Growth: 92%
[2]; Homo sapiens
  GI50: 3.83 µM
[2]; [11]
  CC50: > 100 µM
[3]; Homo sapiens
  GI50: 0.512 µM
[3]; Homo sapiens, RL-60 (TB), read-out: LC50 (the source's name)
  CC50: > 100 µM
[3]; RL-60 (TB)
  TGI: 1.28E−05 Molar
[3]; RL-60 (TB), log10 conc -4 Molar
  Percent Growth: −19%
[3]; RL-60 (TB), log10 conc -5 Molar
  Percent Growth: 3%
[3]; RL-60 (TB), log10 conc -6 Molar
  Percent Growth: 39%
[3]; RL-60 (TB), log10 conc -7 Molar
  Percent Growth: 77%
[3]; RL-60 (TB), log10 conc -8 Molar
  Percent Growth: 81%
[4]; CARI-1
  TGI: >1.00E−04 Molar
[4]; CARI-1, log10 conc -4 Molar
  Percent Growth: 4%
[4]; CARI-1, log10 conc -5 Molar
  Percent Growth: 37%
[4]; CARI-1, log10 conc -6 Molar
  Percent Growth: 48%
[4]; CARI-1, log10 conc -7 Molar
  Percent Growth: 80%
[4]; CARI-1, log10 conc -8 Molar
  Percent Growth: 103%
[4]; Homo sapiens
  GI50: 0.888 µM
[4]; Homo sapiens, CARI-1, read-out: LC50 (the source's name)
  CC50: > 100 µM
[5]; Homo sapiens
  GI50: > 100 µM
[5]; Homo sapiens, ROP-62, read-out: LC50 (the source's name)
  CC50: > 100 µM
[5]; ROP-62
  TGI: >1.00E−04 Molar
[5]; ROP-62, log10 conc -4 Molar
  Percent Growth: 50%
[5]; ROP-62, log10 conc -5 Molar
  Percent Growth: 79%
[5]; ROP-62, log10 conc -6 Molar
  Percent Growth: 88%
[5]; ROP-62, log10 conc -7 Molar
  Percent Growth: 105%
[5]; ROP-62, log10 conc -8 Molar
  Percent Growth: 100%
[6]
  activity against the human cell panel: exhibited activity against the human cell panel
[7]
  inhibition at 10 µM: 99%
[8]; A549/ATCC
  TGI: >1.00E−04 Molar
[8]; A549/ATCC, log10 conc -4 Molar
  Percent Growth: 3%
[8]; A549/ATCC, log10 conc -5 Molar
  Percent Growth: 11%
[8]; A549/ATCC, log10 conc -6 Molar
  Percent Growth: 61%
[8]; A549/ATCC, log10 conc -7 Molar
  Percent Growth: 98%
[8]; A549/ATCC, log10 conc -8 Molar
  Percent Growth: 94%
[8]; Homo sapiens, A549
  GI50: 1.67 µM
[8]; Homo sapiens, A549/ATCC, read-out: LC50 (the source's name)
  CC50: > 100 µM
[9]
  TGI: >1.00E−04 Molar
[9]; Homo sapiens
  GI50: 0.128 µM
[9]; [11]
  CC50: > 100 µM
[9]; log10 conc -4 Molar
  Percent Growth: 4%
[9]; log10 conc -5 Molar
  Percent Growth: 7%
[9]; log10 conc -6 Molar
  Percent Growth: 13%
[9]; log10 conc -7 Molar
  Percent Growth: 54%
[9]; log10 conc -8 Molar
  Percent Growth: 94%
[10]; [11]
  CC50: > 100 µM
[10]
  TGI: >1.00E−04 Molar
[10]; log10 conc -4 Molar
  Percent Growth: 56%
[10]; log10 conc -5 Molar
  Percent Growth: 49%
[10]; log10 conc -6 Molar
  Percent Growth: 38%
[10]; log10 conc -7 Molar
  Percent Growth: 50%
[10]; log10 conc -8 Molar
  Percent Growth: 90%
